From patent publication US5091365A, “Cyclic peptides as promoters of absorption on administration onto the mucosa” (Hoechst Aktiengesellschaft, priority 1987, dated 1992)

What was measured:
female rats [1] = experiment: Ovulation induction in PMSG-pretreated, phenobarbital-blocked female rats (number of ova counted); format: in vivo, rat
Experimental: 1. The effect of cyclic peptides on the nasal and rectal absorption of LHRH (gonadorelin) and LHRH agonists (for example buserelin) was investigated in the following way: female rats weighing 60 g are pretreated with horse serum gonadotropin (PMSG) 10 I.U. (day 1, 09:00) for follicle stimulation. On the third day after the pretreatment, the ovulation which spontaneously occurs at about 14:00 is suppressed by injection of phenobarbital (4 mg/animal i.p. around 13:00). The treatment with the test substance (for example LHRH or buserelin intranasally in a physiologically tolerated buffer solution of pH 3.0-7.5 in a volume of 2-20 μl, rectal administration of suppositories etc.) is carried out at about 13:30. This treatment induces ovulation dose-dependently. On the next day of the experiment (day 4) the animals are sacrificed at about 09:00, both uterine tubes are dissected out and, after staining with patent blue, the number of ova is counted under a stereomicroscope (ovulatory effect of the test substances). The increase in the absorption of the test substances from mucosal surfaces is assessed by comparison of the effect on ovulation in the absence or after addition of, for example, bacitracin 0.001-0.05M. It is also possible to use as parameter of the effect in the same design of experiment the dose-dependent increase in luteinizing hormone (LH) in the serum one hour after treatment. [Sandow J, von Rechenberg W & Jerzabek G (1976): The effect of LHRH, prostaglandins and synthetic analogues of LHRH on ovarian metabolism. Europ. J. Obstetr. Gynaec. Reprod. Biol. 6, 185-190.]

rat = experiment: Increase of absorption of peptide active substances from the mucosa in the rat; format: in vivo
Experimental: 1. The effect of cyclic peptides on the nasal and rectal absorption of LHRH (gonadorelin) and LHRH agonists (for example buserelin) was investigated in the following way: female rats weighing 60 g are pretreated with horse serum gonadotropin (PMSG) 10 I.U. (day 1, 09:00) for follicle stimulation. On the third day after the pretreatment, the ovulation which spontaneously occurs at about 14:00 is suppressed by injection of phenobarbital (4 mg/animal i.p. around 13:00). […] On the next day of the experiment (day 4) the animals are sacrificed at about 09:00, both uterine tubes are dissected out and, after staining with patent blue, the number of ova is counted under a stereomicroscope (ovulatory effect of the test substances). The increase in the absorption of the test substances from mucosal surfaces is assessed by comparison of the effect on ovulation in the absence or after addition of, for example, bacitracin 0.001-0.05M. […]
2. […] It emerged that both bacitracin and colistin and polymyxin B (0.01M) increased the effect of a dose of 10 ng of buserelin, measured by the areas under the curve, by a factor of 3.3-14.
3. […] GH in serum is determined 15-120 minutes after the treatment (for example nasally or rectally) by a specific radioimmunoassay.

female rats [2] = experiment: Release of growth hormone (GH) in serum of PMSG-pretreated rats, radioimmunoassay; format: in vivo, rat; settings: for finding with other GHRH agonists on addition of bacitracin (GH release): compared with (DAla2) GRF-29 amide: 40 μg without = 20 μg with 0.001M bacitracin
Experimental: 3. The effect of cyclic peptides of the nasal absorption of GHRH analogs was investigated in the following way: In the same model as described for the ovulatory effect of LHRH, it is possible on the third day after the pretreatment with PMSG to test the release of growth hormone (GH). GH in serum is determined 15-120 minutes after the treatment (for example nasally or rectally) by a specific radioimmunoassay.

male rats [3] = experiment: Corticosterone release in serum of male rats after nasal ACTH analog, radioimmunoassay; format: in vivo, rat; settings: over 3 h after nasal alsactide (ACTH-17) 5 μg in the presence of 0.01M bacitracin
Experimental: 4. The effect of cyclic peptides on the absorption of ACTH (corticotropin) and ACTH analogs was investigated in male rats (weighing 100 g) after treatment under anesthesia with pentobarbital or ether. The corticosterone release in the serum was determined by a specific radioimmunoassay as a parameter of the effect. It emerged that the corticosterone release over 3 h after nasal treatment, for example, with the ACTH analog alsactide (ACTH-17) in a dose of 5 μg was increased by a factor of 5 in the presence of 0.01M bacitracin.

[4] = test system: isolated gastric mucosa of the guinea pig; experiment: Tolerability: patent blue permeation through isolated guinea pig gastric mucosa
From the text: 6. The tolerability of various cyclic peptides as are used as aids to increase absorption can be tested on the isolated gastric mucosa of the guinea pig. [Wirth K, Bickel M & Deutschlander N (1987): Patent blue permeation through the isolated guinea pig gastric mucosa: a quantitative method for the assessment of gastric irritants. Med. Sci. Res. 15, 881.]

female rats [5] = experiment: Increase in luteinizing hormone (LH) in serum, same design of experiment in female rats; format: in vivo, rat
rectal mucosa = experiment: Rectal mucosa tolerability of hard fat suppositories in rats; format: in vivo, rat; settings: hard fat suppositories with 1 mg of bacitracin, rats weighing 100 g, 3 hours after treatment
Experimental: Furthermore, the compounds according to the invention cause no sensation of pain in humans on nasal administration of 1 to 200 μl of a concentration of 10^-5 to 10^-1 mol/l. […] Local administration of the same concentration by vaginal, rectal or buccal drug forms (i.e., for example, films, tablets, suppositories) likewise causes no irritation to the mucosa.

male rats [6] = experiment: LH release in male rats under urethane anesthesia over 6-7 hours; format: in vivo, rat; settings: aid 0.01M, 10 ng of buserelin
Experimental: 2. An example of another method suitable for detecting the enhancement of the effect due to increased absorption is determination of the LH release in male rats (weighing 100 g, under urethane anesthesia). […] It emerged that both bacitracin and colistin and polymyxin B (0.01M) increased the effect of a dose of 10 ng of buserelin, measured by the areas under the curve, by a factor of 3.3-14.

male rats [7] = experiment: Serum calcium concentration in male rats after intranasal salmon calcitonin; format: in vivo, rat; settings: 0.6-1.2 μg of salmon calcitonin intranasal, addition of 0.01M bacitracin, 1-6 h
Experimental: 5. The effect of cyclic peptides on the absorption of calcitonin and calcitonin analogs (for example salmon calcitonin) can be investigated on male rats weighing 100 or 200 g, for example after intranasal treatment with salmon calcitonin, by determination of the serum calcium concentration over a period of 1-6 h after the treatment. It was found in this that the effect of 0.6-1.2 μg of salmon calcitonin was increased by a factor of 4-6 by addition of, for example, 0.01M bacitracin.

## CC(C)C[C@H](NC(=O)CNC(=O)[C@H](Cc1ccc(O)cc1)NC(=O)[C@H](CO)NC(=O)[C@H](Cc1c[nH]c2ccccc12)NC(=O)[C@H](Cc1cnc[nH]1)NC(=O)[C@@H]1CCC(=O)N1)C(=O)N[C@@H](CCCNC(=N)N)C(=O)N1CCC[C@H]1C(=O)NCC(N)=O [LHRH, LHRH (gonadorelin)]
Female rats [1]; LHRH in physiological saline containing 0.1% gelatin
  dose of LHRH giving the same ovulatory effect, without aid: 8 µg

## CCNC(=O)[C@@H]1CCCN1C(=O)[C@H](CCCNC(=N)N)NC(=O)[C@H](CC(C)C)NC(=O)[C@@H](COC(C)(C)C)NC(=O)[C@H](Cc1ccc(O)cc1)NC(=O)[C@H](CO)NC(=O)[C@H](Cc1c[nH]c2ccccc12)NC(=O)[C@H](Cc1cnc[nH]1)NC(=O)[C@@H]1CCC(=O)N1 [buserelin]
Female rats [1]; buserelin in physiological saline containing 0.1% gelatin
  dose of buserelin giving the same ovulatory effect, without aid: 80 ng
Female rats [1]; rectal treatment of rats with buserelin suppositories, no aid
  dose of buserelin at which ovulation occurred, rectal suppositories, without bacitracin: 400 ng

## C[C@H](CCC(=O)O)[C@H]1CC[C@H]2[C@@H]3CC[C@@H]4C[C@H](O)CC[C@]4(C)[C@H]3C[C@H](O)[C@]12C [deoxycholic acid]
rat; rat, in vivo
  concentration required to increase absorption in the rat: 0.02 M

## (DAla2) GRF-29 amide
Female rats [2]; i.n., without bacitracin
  dose of (DAla2) GRF-29 amide giving corresponding GH release effect, without bacitracin: 40 µg

## (DAla2, NLeu27) GRF-29 amide
Female rats [2]
  finding with other GHRH agonists on addition of bacitracin (GH release): similar

## (Leu27, Gly45) GHRH (1-44)
Female rats [2]
  finding with other GHRH agonists on addition of bacitracin (GH release): similar

## bacitracin
Male rats [3]
  increase of corticosterone release, factor: 5
[4]
  concentration that can be placed on the mucosa without damage: more than 0.006 M
Female rats [5]; buserelin in the presence of 0.001M bacitracin
  enhancement of absorption, factor, from LH release by buserelin: more than 3
Rectal mucosa
  inflammatory change of the rectal mucosa: no inflammatory change
Male rats [6]
  increase of the effect of buserelin on LH release, areas under the curve, factor: 3.3-14
Female rats [2]; i.n., addition of 0.001M bacitracin, equals effect of 40 μg without
  dose of (DAla2) GRF-29 amide giving corresponding GH release effect, with bacitracin: 20 µg
Female rats [1]; LHRH in a solution of 0.001M bacitracin, equals effect of 8 μg without aid
  dose of LHRH giving the same ovulatory effect, with aid: 2 µg
Female rats [1]; buserelin in a solution of 0.001M bacitracin, equals effect of 80 ng without aid
  dose of buserelin giving the same ovulatory effect, with aid: 20 ng
Female rats [1]; rectal treatment of rats with buserelin suppositories plus bacitracin
  dose of buserelin at which ovulation was induced, rectal suppositories, after addition of bacitracin: 50 ng
rat; addition of 0.001M bacitracin
  increase of absorption of LHRH agonists, GHRH agonists and similar active substances, factor: 3-4
Male rats [7]
  increase of the effect of salmon calcitonin (serum calcium), factor: 4-6

## colistin
Female rats [5]; LHRH in the presence of 0.001M colistin
  enhancement of LHRH effect on investigation of the LH release: this effect also emerged
Male rats [6]
  increase of the effect of buserelin on LH release, areas under the curve, factor: 3.3-14

## polymyxin B
Male rats [6]
  increase of the effect of buserelin on LH release, areas under the curve, factor: 3.3-14
